From US9340590B2 (priority 2011, dated 2016)
Read-outs that look alike come from different tables or passages of the source. Positions of bridges follow the written chain, without caps; N, C: chain ends. Residues, ends and D or L forms follow the SMILES beside them.

Assays:
Experiment in all cases: cell-based
hNav1.7 = hNav1.7 (Homo sapiens, UniProt Q15858); type: cell-based; settings: IonWorks Quattro, read-out: IWQ Use Nav1.7
hNav1.5 = hNav1.5 (Homo sapiens, UniProt Q14524)
hNav1.3 = hNav1.3 (Homo sapiens, UniProt Q9NY46); settings: IonWorks Quattro, read-out: IWQ Use Nav1.3
Sequence of hNav1.3 (Q9NY46 whole entry, looked up): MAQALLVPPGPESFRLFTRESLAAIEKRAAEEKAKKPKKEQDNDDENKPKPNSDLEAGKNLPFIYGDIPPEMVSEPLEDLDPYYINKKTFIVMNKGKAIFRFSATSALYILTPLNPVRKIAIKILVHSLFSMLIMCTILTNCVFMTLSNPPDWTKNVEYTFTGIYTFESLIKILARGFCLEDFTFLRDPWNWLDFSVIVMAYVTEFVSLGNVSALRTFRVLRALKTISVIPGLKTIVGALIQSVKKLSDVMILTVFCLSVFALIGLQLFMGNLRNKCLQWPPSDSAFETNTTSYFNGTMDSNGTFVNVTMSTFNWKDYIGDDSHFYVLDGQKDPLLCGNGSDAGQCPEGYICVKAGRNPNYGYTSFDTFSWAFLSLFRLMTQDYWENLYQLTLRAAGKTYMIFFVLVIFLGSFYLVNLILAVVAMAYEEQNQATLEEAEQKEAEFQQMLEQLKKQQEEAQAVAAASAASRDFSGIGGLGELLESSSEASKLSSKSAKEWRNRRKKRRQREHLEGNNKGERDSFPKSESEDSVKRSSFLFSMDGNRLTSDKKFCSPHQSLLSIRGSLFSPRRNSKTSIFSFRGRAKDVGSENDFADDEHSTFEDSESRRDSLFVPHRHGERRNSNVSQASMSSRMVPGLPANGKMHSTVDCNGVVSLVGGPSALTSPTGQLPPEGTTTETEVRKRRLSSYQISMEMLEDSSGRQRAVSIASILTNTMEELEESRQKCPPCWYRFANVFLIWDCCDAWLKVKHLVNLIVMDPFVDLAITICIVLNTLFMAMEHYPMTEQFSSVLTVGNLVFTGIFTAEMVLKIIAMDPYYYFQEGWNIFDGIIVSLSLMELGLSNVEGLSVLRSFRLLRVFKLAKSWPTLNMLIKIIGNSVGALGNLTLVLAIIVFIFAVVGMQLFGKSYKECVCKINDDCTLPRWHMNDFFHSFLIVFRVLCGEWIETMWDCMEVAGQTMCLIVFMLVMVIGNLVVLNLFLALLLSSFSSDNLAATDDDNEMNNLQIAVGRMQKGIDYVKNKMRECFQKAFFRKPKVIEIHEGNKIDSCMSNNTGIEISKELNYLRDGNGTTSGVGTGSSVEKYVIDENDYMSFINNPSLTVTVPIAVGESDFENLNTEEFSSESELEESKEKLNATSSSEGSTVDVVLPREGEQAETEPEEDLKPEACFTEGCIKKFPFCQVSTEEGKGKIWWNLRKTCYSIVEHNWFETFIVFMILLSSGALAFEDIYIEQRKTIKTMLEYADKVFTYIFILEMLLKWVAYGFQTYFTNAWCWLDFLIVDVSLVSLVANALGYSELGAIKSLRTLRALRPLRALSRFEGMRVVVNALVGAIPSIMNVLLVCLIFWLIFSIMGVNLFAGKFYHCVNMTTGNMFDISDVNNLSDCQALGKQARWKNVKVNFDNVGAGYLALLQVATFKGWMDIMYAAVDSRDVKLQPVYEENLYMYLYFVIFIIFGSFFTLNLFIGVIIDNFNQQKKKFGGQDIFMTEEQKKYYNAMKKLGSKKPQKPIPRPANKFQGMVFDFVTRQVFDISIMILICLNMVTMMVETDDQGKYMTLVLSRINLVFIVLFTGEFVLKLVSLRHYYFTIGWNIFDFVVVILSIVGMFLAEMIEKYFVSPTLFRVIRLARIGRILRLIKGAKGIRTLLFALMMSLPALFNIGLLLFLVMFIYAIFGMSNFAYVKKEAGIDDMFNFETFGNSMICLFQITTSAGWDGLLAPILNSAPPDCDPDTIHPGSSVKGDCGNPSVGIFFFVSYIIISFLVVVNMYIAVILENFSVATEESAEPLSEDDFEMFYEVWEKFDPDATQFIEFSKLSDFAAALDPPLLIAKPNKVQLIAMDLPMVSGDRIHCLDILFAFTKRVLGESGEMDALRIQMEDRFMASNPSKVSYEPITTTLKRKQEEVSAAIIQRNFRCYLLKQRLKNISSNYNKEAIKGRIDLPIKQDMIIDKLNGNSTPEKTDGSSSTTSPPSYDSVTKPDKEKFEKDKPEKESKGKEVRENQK

[1] = Table 24, IonWorks Quattro, use, […], read-out: IWQ Use Nav1.5
[2] = Table 23, IonWorks Quattro, use, […], read-out: IWQ Use Nav1.5
[3] = IonWorks Quattro, Use, read-out: IWQ Use Nav1.5

Sequence of hNav1.7 (Q15858 whole entry, looked up): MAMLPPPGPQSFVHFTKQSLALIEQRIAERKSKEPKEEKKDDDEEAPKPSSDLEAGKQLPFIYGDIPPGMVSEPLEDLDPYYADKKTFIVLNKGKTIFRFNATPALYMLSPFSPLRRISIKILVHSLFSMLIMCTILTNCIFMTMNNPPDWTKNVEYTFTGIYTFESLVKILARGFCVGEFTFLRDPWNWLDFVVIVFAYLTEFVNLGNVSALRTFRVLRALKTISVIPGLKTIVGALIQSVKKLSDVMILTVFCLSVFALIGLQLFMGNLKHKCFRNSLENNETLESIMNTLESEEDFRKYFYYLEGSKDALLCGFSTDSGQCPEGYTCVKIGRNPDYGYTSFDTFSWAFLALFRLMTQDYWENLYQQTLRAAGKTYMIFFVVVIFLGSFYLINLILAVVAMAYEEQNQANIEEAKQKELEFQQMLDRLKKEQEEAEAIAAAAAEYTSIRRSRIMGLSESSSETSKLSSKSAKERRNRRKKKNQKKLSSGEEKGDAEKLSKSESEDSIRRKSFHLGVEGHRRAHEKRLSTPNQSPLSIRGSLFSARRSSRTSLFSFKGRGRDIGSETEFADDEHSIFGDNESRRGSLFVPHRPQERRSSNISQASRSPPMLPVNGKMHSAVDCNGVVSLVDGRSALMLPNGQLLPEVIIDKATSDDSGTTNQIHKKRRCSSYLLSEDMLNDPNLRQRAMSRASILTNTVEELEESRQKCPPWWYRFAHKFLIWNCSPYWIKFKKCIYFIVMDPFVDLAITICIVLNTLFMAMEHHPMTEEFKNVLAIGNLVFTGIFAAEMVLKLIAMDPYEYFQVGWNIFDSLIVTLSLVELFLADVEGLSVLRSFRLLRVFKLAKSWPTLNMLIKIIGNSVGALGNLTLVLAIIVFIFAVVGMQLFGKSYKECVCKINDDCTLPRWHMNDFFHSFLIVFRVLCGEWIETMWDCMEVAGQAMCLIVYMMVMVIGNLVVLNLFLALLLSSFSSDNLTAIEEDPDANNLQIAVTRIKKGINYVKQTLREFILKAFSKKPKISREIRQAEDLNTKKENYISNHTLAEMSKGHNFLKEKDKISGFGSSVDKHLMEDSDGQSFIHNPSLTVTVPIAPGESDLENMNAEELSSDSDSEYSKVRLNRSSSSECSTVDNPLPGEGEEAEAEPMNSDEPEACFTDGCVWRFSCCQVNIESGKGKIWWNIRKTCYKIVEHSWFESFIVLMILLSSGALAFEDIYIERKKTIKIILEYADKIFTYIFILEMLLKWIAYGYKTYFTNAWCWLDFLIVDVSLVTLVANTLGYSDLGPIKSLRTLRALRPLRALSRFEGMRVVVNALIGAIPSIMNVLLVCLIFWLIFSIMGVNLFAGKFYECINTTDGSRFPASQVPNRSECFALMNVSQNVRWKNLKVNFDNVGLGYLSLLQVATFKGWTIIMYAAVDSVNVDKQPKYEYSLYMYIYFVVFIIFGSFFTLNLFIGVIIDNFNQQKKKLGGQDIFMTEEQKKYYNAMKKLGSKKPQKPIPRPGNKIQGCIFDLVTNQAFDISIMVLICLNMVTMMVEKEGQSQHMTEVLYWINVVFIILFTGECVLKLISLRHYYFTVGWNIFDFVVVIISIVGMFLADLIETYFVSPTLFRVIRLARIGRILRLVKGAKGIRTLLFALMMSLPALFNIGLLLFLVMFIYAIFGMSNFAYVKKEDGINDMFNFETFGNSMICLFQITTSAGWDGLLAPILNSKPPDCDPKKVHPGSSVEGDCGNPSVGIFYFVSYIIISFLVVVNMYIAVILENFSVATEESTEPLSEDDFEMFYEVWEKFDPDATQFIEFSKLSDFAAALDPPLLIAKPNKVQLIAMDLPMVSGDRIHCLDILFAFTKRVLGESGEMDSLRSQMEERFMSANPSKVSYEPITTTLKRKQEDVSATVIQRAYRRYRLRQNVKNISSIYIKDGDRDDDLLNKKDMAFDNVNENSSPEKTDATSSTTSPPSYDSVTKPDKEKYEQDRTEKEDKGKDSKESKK

Question: Which IC50 (hNav1.7; Table 24, use, […]) does the source give for CC[C@H](C)[C@@H]1NC(=O)[C@@H]2CSSC[C@@H]3NC(=O)[C@H](C(C)C)NC(=O)[C@H](CC(C)C)NC(=O)[C@H](CC(N)=O)NC(=O)[C@@H]4CCCN4C(=O)[C@H](CCCNC(=N)N)NC(=O)[C@H](CSSC[C@H](NC(=O)[C@@H](N)CC(=O)O)C(=O)N[C@@H](CC(C)C)C(=O)NCC(=O)N[C@@H](Cc4ccccc4)C(=O)N[C@@H](CCSC)C(=O)N[C@@H](CCCNC(=N)N)C(=O)N[C@@H](CCCCN)C(=O)N2)NC(=O)[C@H](CSSC[C@@H](C(=O)N[C@@H](CCCCN)C(=O)N[C@@H](Cc2ccc(O)cc2)C(=O)N[C@H](C(=O)N[C@@H](Cc2ccccc2)C(N)=O)C(C)C)NC(=O)[C@H](CCCNC(=N)N)NC(=O)[C@H](CCCCN)NC(=O)[C@H](Cc2cnc[nH]2)NC(=O)[C@H]([C@@H](C)O)NC(=O)[C@H](CCCNC(=N)N)NC(=O)[C@H](CO)NC3=O)NC(=O)[C@H](CCCCN)NC(=O)[C@H](CC(=O)O)NC(=O)[C@H](CC(N)=O)NC(=O)[C@H](CC(=O)O)NC(=O)[C@@H]2CCCN2C1=O [compound 104] (H-DCLGFMRKCIPDNDKCCRPNLVCSRTHKRCKYVF-NH2; disulfide 2-17, 9-23, 16-30) here?
Answer: Its IC50 is 9730 nM.

Question: And the IC50 (hNav1.5; [1])?
Answer: The IC50 was 18.8 µM.

Question: And the IC50 (hNav1.3; Table 24, use, […])?
Answer: Its IC50 is 11400 nM.

Question: Which IC50 (hNav1.7; Table 23, use, […]) does the source give for CC[C@H](C)[C@@H]1NC(=O)[C@@H]2CSSC[C@@H]3NC(=O)[C@H](C(C)C)NC(=O)[C@H](CC(C)C)NC(=O)[C@H](CC(N)=O)NC(=O)[C@@H]4CCCN4C(=O)[C@H](CCCNC(=N)N)NC(=O)[C@H](CSSC[C@H](NC(=O)[C@@H](N)CC(=O)O)C(=O)N[C@@H](CC(C)C)C(=O)NCC(=O)N[C@@H](Cc4ccccc4)C(=O)N[C@@H](CCSC)C(=O)N[C@@H](CCCNC(=N)N)C(=O)N[C@@H](CCCCN)C(=O)N2)NC(=O)[C@H](CSSC[C@@H](C(=O)N[C@@H](CCCCN)C(=O)N[C@@H](Cc2ccc(O)cc2)C(=O)N[C@H](C(=O)N[C@@H](Cc2ccccc2)C(N)=O)C(C)C)NC(=O)[C@H](Cc2c[nH]c4ccccc24)NC(=O)[C@H](CCCCN)NC(=O)[C@H](Cc2ccccc2)NC(=O)[C@H]([C@@H](C)O)NC(=O)[C@H](CCCNC(=N)N)NC(=O)[C@H](CO)NC3=O)NC(=O)[C@H](CCCCN)NC(=O)[C@H](CC(=O)O)NC(=O)[C@H](CC(N)=O)NC(=O)[C@H](CC(=O)O)NC(=O)[C@@H]2CCCN2C1=O [compound 109] (H-DCLGFMRKCIPDNDKCCRPNLVCSRTFKWCKYVF-NH2; disulfide 2-17, 9-23, 16-30) here?
Answer: Its IC50 is 220 nM.

Question: What about the IC50 (hNav1.5; [2]) of the same molecule?
Answer: The IC50 was 2.06 µM.

Question: And the IC50 (hNav1.3; Table 23, use, […])?
Answer: The IC50 was 530 nM.

Question: Which results are given for CC[C@H](C)[C@@H]1NC(=O)[C@@H]2CSSC[C@@H]3NC(=O)[C@H](C(C)C)NC(=O)[C@H](CC(C)C)NC(=O)[C@H](CC(N)=O)NC(=O)[C@@H]4CCCN4C(=O)[C@H](CCCNC(=N)N)NC(=O)[C@H](CSSC[C@H](NC(=O)[C@@H](N)CC(=O)O)C(=O)N[C@@H](CC(C)C)C(=O)NCC(=O)N[C@@H](Cc4ccccc4)C(=O)N[C@@H](CCSC)C(=O)N[C@@H](CCCNC(=N)N)C(=O)N[C@@H](CCCCN)C(=O)N2)NC(=O)[C@H](CSSC[C@@H](C(=O)N[C@@H](CCCCN)C(=O)N[C@@H](Cc2ccc(O)cc2)C(=O)N[C@H](C(=O)N[C@@H](Cc2ccccc2)C(N)=O)C(C)C)NC(=O)[C@H](Cc2c[nH]c4ccccc24)NC(=O)[C@H](CCCCN)NC(=O)[C@H](Cc2ccc(O)cc2)NC(=O)[C@H]([C@@H](C)O)NC(=O)[C@H](CCCNC(=N)N)NC(=O)[C@H](CO)NC3=O)NC(=O)[C@H](CCCCN)NC(=O)[C@H](CC(=O)O)NC(=O)[C@H](CC(N)=O)NC(=O)[C@H](CC(=O)O)NC(=O)[C@@H]2CCCN2C1=O [compound 110] (H-DCLGFMRKCIPDNDKCCRPNLVCSRTYKWCKYVF-NH2; disulfide 2-17, 9-23, 16-30)?
Answer: IC50 (hNav1.7; Table 23, use, […]): 190 nM; IC50 (hNav1.5; [2]): 6.39 µM; IC50 (hNav1.3; Table 23, use, […]): 310 nM

Question: CC[C@H](C)[C@@H]1NC(=O)[C@@H]2CSSC[C@@H]3NC(=O)[C@H](C(C)C)NC(=O)[C@H](CC(C)C)NC(=O)[C@H](CC(N)=O)NC(=O)[C@@H]4CCCN4C(=O)[C@H](CCCNC(=N)N)NC(=O)[C@H](CSSC[C@H](NC(=O)[C@@H](N)CC(=O)O)C(=O)N[C@@H](CC(C)C)C(=O)NCC(=O)N[C@@H](Cc4ccccc4)C(=O)N[C@@H](CCSC)C(=O)N[C@@H](CCCNC(=N)N)C(=O)N[C@@H](CCCCN)C(=O)N2)NC(=O)[C@H](CSSC[C@@H](C(=O)N[C@@H](CCCCN)C(=O)N[C@@H](Cc2ccc(O)cc2)C(=O)N[C@H](C(=O)N[C@@H](Cc2ccccc2)C(N)=O)C(C)C)NC(=O)[C@H](Cc2c[nH]c4ccccc24)NC(=O)[C@H](CCCCN)NC(=O)[C@H](CC(C)C)NC(=O)[C@H]([C@@H](C)O)NC(=O)[C@H](CCCNC(=N)N)NC(=O)[C@H](CO)NC3=O)NC(=O)[C@H](CCCCN)NC(=O)[C@H](CC(=O)O)NC(=O)[C@H](CC(N)=O)NC(=O)[C@H](CC(=O)O)NC(=O)[C@@H]2CCCN2C1=O [compound 111] (H-DCLGFMRKCIPDNDKCCRPNLVCSRTLKWCKYVF-NH2; disulfide 2-17, 9-23, 16-30) was tested. Which IC50 (hNav1.7; Table 23, use, […]) did it give?
Answer: Its IC50 is 1150 nM.

Question: What about the IC50 (hNav1.5; [2]) of the same molecule?
Answer: The IC50 was 6.19 µM.

Question: And the IC50 (hNav1.3; Table 23, use, […])?
Answer: Its IC50 is 1010 nM.

Question: What does the source list for CC[C@H](C)[C@@H]1NC(=O)[C@@H]2CSSC[C@@H]3NC(=O)[C@H](C(C)C)NC(=O)[C@H](CC(C)C)NC(=O)[C@H](CC(N)=O)NC(=O)[C@@H]4CCCN4C(=O)[C@H](CCCNC(=N)N)NC(=O)[C@H](CSSC[C@H](NC(=O)[C@@H](N)CC(=O)O)C(=O)N[C@@H](CC(C)C)C(=O)NCC(=O)N[C@@H](Cc4ccccc4)C(=O)N[C@@H](CCSC)C(=O)N[C@@H](CCCNC(=N)N)C(=O)N[C@@H](CCCCN)C(=O)N2)NC(=O)[C@H](CSSC[C@@H](C(=O)N[C@@H](CCCCN)C(=O)N[C@@H](Cc2ccc(O)cc2)C(=O)N[C@H](C(=O)N[C@@H](Cc2ccccc2)C(N)=O)C(C)C)NC(=O)[C@H](CC(C)C)NC(=O)[C@H](CCCCN)NC(=O)[C@H](Cc2c[nH]cn2)NC(=O)[C@H]([C@@H](C)O)NC(=O)[C@H](CCCNC(=N)N)NC(=O)[C@H](CO)NC3=O)NC(=O)[C@H](CCCCN)NC(=O)[C@H](CC(=O)O)NC(=O)[C@H](CC(N)=O)NC(=O)[C@H](CC(=O)O)NC(=O)[C@@H]2CCCN2C1=O [compound 114] (H-DCLGFMRKCIPDNDKCCRPNLVCSRTHKLCKYVF-NH2; disulfide 2-17, 9-23, 16-30)?
Answer: IC50 (hNav1.7; Table 24, use, […]): 6990 nM; IC50 (hNav1.5; [1]): 7.27 µM; IC50 (hNav1.3; Table 24, use, […]): 9800 nM

Question: What does the source list for CC[C@H](C)[C@@H]1NC(=O)[C@@H]2CSSC[C@@H]3NC(=O)[C@H](C(C)C)NC(=O)[C@H](CC(C)C)NC(=O)[C@H](CC(N)=O)NC(=O)[C@@H]4CCCN4C(=O)[C@H](CCCNC(N)=O)NC(=O)[C@H](CSSC[C@H](NC(=O)[C@@H](N)CC(=O)O)C(=O)N[C@@H](CC(C)C)C(=O)NCC(=O)N[C@@H](Cc4ccccc4)C(=O)N[C@@H](CCSC)C(=O)N[C@@H](CCCNC(=N)N)C(=O)N[C@@H](CCCCN)C(=O)N2)NC(=O)[C@H](CSSC[C@@H](C(=O)N[C@@H](CCCCN)C(=O)N[C@@H](Cc2ccc(O)cc2)C(=O)N[C@H](C(=O)N[C@@H](Cc2ccccc2)C(N)=O)C(C)C)NC(=O)[C@H](Cc2c[nH]c4ccccc24)NC(=O)[C@H](CCCCN)NC(=O)[C@H](Cc2cnc[nH]2)NC(=O)[C@H]([C@@H](C)O)NC(=O)[C@H](CCCNC(=N)N)NC(=O)[C@H](CO)NC3=O)NC(=O)[C@H](CCCCN)NC(=O)[C@H](CC(=O)O)NC(=O)[C@H](CC(N)=O)NC(=O)[C@H](CC(=O)O)NC(=O)[C@@H]2CCCN2C1=O [compound 116]?
Answer: IC50 (hNav1.7; Use): 170 nM; IC50 (hNav1.5; IWQ Use Nav1.5 (μM)): 11 µM; IC50 (hNav1.3; Use): 230 nM

Question: Which results are given for CC[C@H](C)[C@@H]1NC(=O)[C@@H]2CSSC[C@@H]3NC(=O)[C@H](C(C)C)NC(=O)[C@H](CC(C)C)NC(=O)[C@H](CC(N)=O)NC(=O)[C@@H]4CCCN4C(=O)[C@H](CCCNC(=N)N)NC(=O)[C@H](CSSC[C@H](NC(=O)[C@@H](N)CC(=O)O)C(=O)N[C@@H](CC(C)C)C(=O)NCC(=O)N[C@@H](Cc4ccccc4)C(=O)N[C@@H](CCSC)C(=O)N[C@@H](CCCNC(=N)N)C(=O)N[C@@H](CCCCN)C(=O)N2)NC(=O)[C@H](CSSC[C@@H](C(=O)N[C@@H](CCCCN)C(=O)N[C@@H](Cc2ccc(O)cc2)C(=O)N[C@H](C(=O)N[C@@H](Cc2ccccc2)C(N)=O)C(C)C)NC(=O)[C@H](Cc2c[nH]c4ccccc24)NC(=O)[C@H](CCCCN)NC(=O)[C@H](Cc2c[nH]cn2)NC(=O)[C@H]([C@@H](C)O)NC(=O)[C@H](CCCNC(N)=O)NC(=O)[C@H](CO)NC3=O)NC(=O)[C@H](CCCCN)NC(=O)[C@H](CC(=O)O)NC(=O)[C@H](CC(N)=O)NC(=O)[C@H](CC(=O)O)NC(=O)[C@@H]2CCCN2C1=O [compound 117]?
Answer: IC50 (hNav1.7; Use): 320 nM; IC50 (hNav1.5; [3]): 8.87 µM; IC50 (hNav1.3; Use): 510 nM

Question: How did the IC50 (hNav1.7; Use) turn out when CC[C@H](C)[C@@H]1NC(=O)[C@@H]2CSSC[C@@H]3NC(=O)[C@H](C(C)C)NC(=O)[C@H](CCSC)NC(=O)[C@H](CC(N)=O)NC(=O)[C@@H]4CCCN4C(=O)[C@H](CCCNC(=N)N)NC(=O)[C@H](CSSC[C@H](NC(=O)[C@@H](N)CC(=O)O)C(=O)N[C@@H](CC(C)C)C(=O)NCC(=O)N[C@@H](Cc4ccccc4)C(=O)N[C@@H](CCSC)C(=O)N[C@@H](CCCNC(=N)N)C(=O)N[C@@H](CCCCN)C(=O)N2)NC(=O)[C@H](CSSC[C@@H](C(=O)N[C@@H](CCCCN)C(=O)N[C@@H](Cc2ccc(O)cc2)C(=O)N[C@H](C(=O)N[C@@H](Cc2ccccc2)C(N)=O)C(C)C)NC(=O)[C@H](Cc2c[nH]c4ccccc24)NC(=O)[C@H](CCCCN)NC(=O)[C@H](Cc2c[nH]cn2)NC(=O)[C@H]([C@@H](C)O)NC(=O)[C@H](CCCNC(=N)N)NC(=O)[C@H](CO)NC3=O)NC(=O)[C@H](CCCCN)NC(=O)[C@H](CC(=O)O)NC(=O)[C@H](CC(N)=O)NC(=O)[C@H](CC(=O)O)NC(=O)[C@@H]2CCCN2C1=O [compound 120] (H-DCLGFMRKCIPDNDKCCRPNMVCSRTHKWCKYVF-NH2; disulfide 2-17, 9-23, 16-30) was run?
Answer: Its IC50 is 140 nM.

Question: And the IC50 (hNav1.5; [3])?
Answer: Its IC50 is 9.54 µM.

Question: And the IC50 (hNav1.3; Use)?
Answer: Its IC50 is 90 nM.
